For one compound, inhibition results are on record in PMC5391474, “Investigation of the Role of Protein Kinase D in Human Rhinovirus Replication” (Journal of Virology, 2017).

One may read the inhibition as the drop in the measured response relative to a control, in per cent.

Assay in all cases: biochemical
Common to all, as to parameters: in vitro kinase selectivity panel, protein and lipid kinases, single concentration, ATP at Km
Holding throughout (conditions): ATP at Km

The target of one experiment is FGFR1(h) (Homo sapiens, UniProt P11362). The method in brief:
(§1)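 Single-point screen against a protein and lipid kinase panel: inhibitor at 1 μM. ATP concentration for every kinase equivalent to its Km.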

The target of a further experiment is EGFR(T790M,L858R)(h) (Homo sapiens, UniProt P00533, L858R/T790M). A digest of the protocol: as §1
Chain of EGFR(T790M,L858R)(h) (P00533 whole entry T790M/L858R): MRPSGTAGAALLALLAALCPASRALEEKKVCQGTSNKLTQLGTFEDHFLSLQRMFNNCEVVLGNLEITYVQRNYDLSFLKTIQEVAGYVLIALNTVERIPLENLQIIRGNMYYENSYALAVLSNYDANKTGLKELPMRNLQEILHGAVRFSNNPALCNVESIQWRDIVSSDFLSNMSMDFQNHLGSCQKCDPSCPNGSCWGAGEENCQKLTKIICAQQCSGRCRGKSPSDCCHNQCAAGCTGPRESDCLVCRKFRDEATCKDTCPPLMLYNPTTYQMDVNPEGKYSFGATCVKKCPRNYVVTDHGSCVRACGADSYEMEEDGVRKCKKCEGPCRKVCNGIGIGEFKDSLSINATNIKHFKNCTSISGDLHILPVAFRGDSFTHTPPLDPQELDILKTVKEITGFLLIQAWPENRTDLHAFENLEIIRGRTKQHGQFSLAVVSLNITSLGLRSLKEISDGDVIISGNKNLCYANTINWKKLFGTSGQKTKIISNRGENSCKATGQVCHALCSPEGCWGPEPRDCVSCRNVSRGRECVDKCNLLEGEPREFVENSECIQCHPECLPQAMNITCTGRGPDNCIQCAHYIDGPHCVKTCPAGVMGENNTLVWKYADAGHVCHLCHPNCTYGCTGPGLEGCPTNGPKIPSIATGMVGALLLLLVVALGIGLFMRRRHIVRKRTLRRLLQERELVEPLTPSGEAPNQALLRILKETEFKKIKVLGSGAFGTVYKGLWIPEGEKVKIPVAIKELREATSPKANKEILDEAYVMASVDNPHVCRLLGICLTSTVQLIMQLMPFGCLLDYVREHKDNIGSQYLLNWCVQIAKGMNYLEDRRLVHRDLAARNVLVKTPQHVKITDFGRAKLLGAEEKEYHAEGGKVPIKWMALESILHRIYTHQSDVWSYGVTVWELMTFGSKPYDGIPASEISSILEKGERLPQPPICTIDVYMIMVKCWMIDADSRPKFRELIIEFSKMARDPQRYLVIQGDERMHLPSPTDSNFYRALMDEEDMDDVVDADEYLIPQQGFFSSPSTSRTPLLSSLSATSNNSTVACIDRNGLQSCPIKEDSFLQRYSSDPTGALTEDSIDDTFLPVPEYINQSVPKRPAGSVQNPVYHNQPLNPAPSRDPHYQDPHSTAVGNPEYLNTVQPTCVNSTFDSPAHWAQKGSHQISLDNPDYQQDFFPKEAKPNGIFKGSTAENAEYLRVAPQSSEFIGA
Another experiment concerns the target CDK2/cyclinA(h) (Homo sapiens, UniProt P24941). A digest of the protocol:
as §1

A further experiment concerns the target T1, Aurora-A(h) (Homo sapiens, UniProt O14965).
T1 construct: gene AURKA
A digest of the protocol:
as §1

The next experiment deals with T2, PKCγ(h) (Homo sapiens, UniProt P05129).
T2 construct: gene PRKCG
A digest of the protocol:
as §1

The next experiment addresses KDR(h) (Homo sapiens, UniProt P35968). The method in brief: as §1
The next experiment deals with EphB4(h) (Homo sapiens, UniProt P54760). The method in brief: as §1
Chain of EphB4(h) (P54760 whole entry): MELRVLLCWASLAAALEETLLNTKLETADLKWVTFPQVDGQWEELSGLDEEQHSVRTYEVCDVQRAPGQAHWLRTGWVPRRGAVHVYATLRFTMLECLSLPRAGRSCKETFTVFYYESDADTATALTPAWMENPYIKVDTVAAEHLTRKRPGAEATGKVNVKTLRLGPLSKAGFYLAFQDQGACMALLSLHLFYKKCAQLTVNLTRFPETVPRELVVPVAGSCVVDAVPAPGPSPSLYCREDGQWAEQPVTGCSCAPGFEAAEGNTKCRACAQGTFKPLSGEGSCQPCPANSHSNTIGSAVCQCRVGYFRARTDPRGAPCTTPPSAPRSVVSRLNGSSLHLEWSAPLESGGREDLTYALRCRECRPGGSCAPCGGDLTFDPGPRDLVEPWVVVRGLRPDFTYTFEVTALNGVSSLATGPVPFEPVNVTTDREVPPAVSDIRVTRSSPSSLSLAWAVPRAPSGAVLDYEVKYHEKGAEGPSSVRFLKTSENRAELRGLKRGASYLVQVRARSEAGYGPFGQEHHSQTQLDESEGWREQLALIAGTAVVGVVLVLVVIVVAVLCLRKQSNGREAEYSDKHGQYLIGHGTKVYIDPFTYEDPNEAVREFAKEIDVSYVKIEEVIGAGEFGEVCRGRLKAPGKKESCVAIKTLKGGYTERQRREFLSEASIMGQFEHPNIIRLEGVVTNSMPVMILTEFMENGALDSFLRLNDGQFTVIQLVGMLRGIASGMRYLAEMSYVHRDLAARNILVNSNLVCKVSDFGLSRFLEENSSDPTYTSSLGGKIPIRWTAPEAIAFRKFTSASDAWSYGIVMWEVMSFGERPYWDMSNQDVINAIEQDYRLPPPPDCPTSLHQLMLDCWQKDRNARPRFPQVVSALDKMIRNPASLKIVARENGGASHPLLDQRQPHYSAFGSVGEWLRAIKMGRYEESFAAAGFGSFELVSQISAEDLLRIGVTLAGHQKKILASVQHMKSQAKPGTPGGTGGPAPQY
The target of the next experiment is SPHK2 (Homo sapiens, UniProt Q9NRA0). A digest of the protocol: as §1
The target of a further experiment is NEK2(h) (Homo sapiens, UniProt P51955). The method in brief:
as §1

The target of another experiment is T3, PIK3CB / p85 (h) (Homo sapiens, UniProt P42338).
T3 construct: p110beta/p85
A digest of the protocol:
as §1

Another experiment addresses T4, TAK1(h) (Homo sapiens, UniProt O43318).
T4 construct: gene MAP3K7
The method in brief: as §1

The target in another experiment is T5, PIK4B (Homo sapiens, UniProt Q9UBF8).
T5 construct: gene PI4KB
A digest of the protocol:
as §1

The target in the next experiment is HIPK2(h) (Homo sapiens, UniProt Q9H2X6). The method in brief: as §1
A further experiment addresses T6, Rsk1(h) (Homo sapiens, UniProt Q15418).
T6 construct: gene RPS6KA1
A digest of the protocol:
as §1

In another experiment the target is T7, c-RAF(h) (Homo sapiens, UniProt P04049).
T7 construct: gene RAF1
The method in brief:
as §1

A further experiment addresses T8, Ron(h) (Homo sapiens, UniProt Q04912).
T8 construct: gene MST1R
The method in brief:
as §1

The target of a further experiment is Axl(h) (Homo sapiens, UniProt P30530). A digest of the protocol:
as §1

The target of the next experiment is Hck(h) (Homo sapiens, UniProt P08631). A digest of the protocol:
as §1

The structures appear in SMILES notation.

Chain of NEK2(h) (P51955 whole entry): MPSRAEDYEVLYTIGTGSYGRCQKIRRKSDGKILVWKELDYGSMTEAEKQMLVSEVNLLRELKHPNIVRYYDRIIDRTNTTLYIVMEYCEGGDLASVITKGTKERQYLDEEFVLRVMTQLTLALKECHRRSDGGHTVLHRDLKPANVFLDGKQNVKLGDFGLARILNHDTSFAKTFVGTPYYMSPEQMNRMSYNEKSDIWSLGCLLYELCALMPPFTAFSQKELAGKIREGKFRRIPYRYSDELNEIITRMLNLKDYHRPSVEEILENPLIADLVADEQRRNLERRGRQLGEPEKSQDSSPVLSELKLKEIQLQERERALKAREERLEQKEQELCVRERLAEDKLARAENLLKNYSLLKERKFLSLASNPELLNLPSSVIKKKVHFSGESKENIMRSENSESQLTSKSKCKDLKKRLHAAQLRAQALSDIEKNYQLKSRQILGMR
Chain of KDR(h) (P35968 whole entry): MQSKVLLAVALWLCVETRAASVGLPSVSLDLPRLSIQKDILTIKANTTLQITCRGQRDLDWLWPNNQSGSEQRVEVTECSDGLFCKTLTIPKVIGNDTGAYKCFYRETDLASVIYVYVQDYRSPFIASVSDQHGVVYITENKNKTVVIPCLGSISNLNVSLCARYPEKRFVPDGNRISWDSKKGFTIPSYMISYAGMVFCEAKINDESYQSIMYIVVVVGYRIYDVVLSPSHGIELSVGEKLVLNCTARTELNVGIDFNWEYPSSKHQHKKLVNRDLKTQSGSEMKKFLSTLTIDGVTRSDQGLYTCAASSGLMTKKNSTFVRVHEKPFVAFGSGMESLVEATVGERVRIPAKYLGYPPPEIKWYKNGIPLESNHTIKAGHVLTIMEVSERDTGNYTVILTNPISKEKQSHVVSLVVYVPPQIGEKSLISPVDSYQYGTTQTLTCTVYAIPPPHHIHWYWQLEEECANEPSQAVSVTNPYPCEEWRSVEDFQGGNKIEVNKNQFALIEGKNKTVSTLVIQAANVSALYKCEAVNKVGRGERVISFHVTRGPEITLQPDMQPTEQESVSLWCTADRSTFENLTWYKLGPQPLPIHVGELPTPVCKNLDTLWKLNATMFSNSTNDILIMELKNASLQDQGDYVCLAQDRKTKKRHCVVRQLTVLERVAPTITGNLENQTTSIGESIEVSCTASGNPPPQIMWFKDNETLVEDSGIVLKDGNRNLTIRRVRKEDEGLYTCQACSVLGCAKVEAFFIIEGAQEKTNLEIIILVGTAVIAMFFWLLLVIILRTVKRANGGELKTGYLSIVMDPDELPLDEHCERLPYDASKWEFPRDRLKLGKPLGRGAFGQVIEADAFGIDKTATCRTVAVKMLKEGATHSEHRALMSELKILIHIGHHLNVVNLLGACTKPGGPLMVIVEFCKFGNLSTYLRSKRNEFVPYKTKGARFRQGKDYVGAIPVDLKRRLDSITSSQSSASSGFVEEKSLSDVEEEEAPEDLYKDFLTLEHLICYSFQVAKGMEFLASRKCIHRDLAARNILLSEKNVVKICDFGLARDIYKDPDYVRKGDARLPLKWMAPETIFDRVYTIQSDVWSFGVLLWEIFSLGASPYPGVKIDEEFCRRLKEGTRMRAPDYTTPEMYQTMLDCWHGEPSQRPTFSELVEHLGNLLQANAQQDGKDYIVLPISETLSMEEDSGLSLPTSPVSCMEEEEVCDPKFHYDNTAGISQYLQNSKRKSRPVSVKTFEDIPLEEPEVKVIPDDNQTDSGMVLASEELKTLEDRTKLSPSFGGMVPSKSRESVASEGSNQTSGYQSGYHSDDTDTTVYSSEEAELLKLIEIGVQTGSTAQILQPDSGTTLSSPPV
T4 sequence (O43318 whole entry): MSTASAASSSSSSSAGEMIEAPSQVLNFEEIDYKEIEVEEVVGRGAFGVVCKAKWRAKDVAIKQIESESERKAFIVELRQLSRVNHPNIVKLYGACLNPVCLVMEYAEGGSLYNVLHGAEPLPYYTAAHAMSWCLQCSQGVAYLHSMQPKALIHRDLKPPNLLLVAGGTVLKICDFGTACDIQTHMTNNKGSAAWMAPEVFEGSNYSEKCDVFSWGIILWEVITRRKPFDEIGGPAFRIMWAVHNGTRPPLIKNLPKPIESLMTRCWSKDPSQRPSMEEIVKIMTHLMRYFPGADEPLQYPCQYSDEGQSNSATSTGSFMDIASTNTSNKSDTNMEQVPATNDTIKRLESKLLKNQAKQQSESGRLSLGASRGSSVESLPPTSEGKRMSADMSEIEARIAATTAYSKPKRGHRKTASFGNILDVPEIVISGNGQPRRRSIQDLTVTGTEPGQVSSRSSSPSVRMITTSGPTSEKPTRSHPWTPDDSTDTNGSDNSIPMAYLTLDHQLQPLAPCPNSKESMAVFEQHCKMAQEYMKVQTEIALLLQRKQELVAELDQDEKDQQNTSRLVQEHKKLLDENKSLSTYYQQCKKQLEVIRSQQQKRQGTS
T1 sequence (O14965 whole entry): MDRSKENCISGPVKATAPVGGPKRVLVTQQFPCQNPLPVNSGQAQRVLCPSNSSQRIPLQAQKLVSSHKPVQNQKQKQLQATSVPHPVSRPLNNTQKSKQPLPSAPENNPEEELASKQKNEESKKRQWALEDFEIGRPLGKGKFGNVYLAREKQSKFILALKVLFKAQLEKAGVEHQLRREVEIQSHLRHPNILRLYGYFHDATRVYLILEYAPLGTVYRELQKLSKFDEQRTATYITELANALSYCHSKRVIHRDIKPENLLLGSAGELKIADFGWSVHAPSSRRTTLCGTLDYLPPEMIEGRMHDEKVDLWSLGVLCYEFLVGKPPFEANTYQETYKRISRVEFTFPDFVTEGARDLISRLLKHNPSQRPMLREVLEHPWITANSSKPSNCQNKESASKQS

For `CC[C@@H](N)CNc1ccnc(-c2cc(-c3cnn(C)c3)ccc2O)n1` [CRT0066101], the inhibition at 1 µM against FGFR1(h) is -30%; on EGFR(T790M,L858R)(h), -3%; against CDK2/cyclinA(h), 53%; against Aurora-A(h) it was -1%; against PKCγ(h), 7%; at KDR(h) it was 13%. Besides, the inhibition at 1 µM on EphB4(h) is 25%; at SPHK2 it was 20%; against NEK2(h), 0%; at PIK3CB / p85 (h), 0%; at TAK1(h), -6%; against PIK4B, 33%. The inhibition at 1 µM on HIPK2(h) was 55%; against Rsk1(h) it was 48%; at c-RAF(h), 4%; against Ron(h), -8%; at Axl(h) it was 39%; against Hck(h), 4%.
